These results are taken from PMC6072243 (ACS Omega, 2018).

In series [1] the target is JNK3 (Homo sapiens, UniProt P53779). Put plainly: JNK3 enzyme-linked immunosorbent assay. The class given is biochemical.
Series [2] addresses p38α MAPK (Homo sapiens, UniProt Q16539). Put plainly: p38α MAPK enzyme-linked immunosorbent assay. The class given is biochemical. Particulars: for inhibition at 10 µM: read-out: Percent inhibition of p38α MAPK at indicated concentration.
Series [3] concerns the target JNK1 (Homo sapiens, UniProt P45983). The series is described as follows: Radiometric assay, Reaction Biology corporation. The class given is biochemical.
For series [4], the target named is JNK2 (Homo sapiens, UniProt P45984). Put plainly: Radiometric assay, Reaction Biology corporation. The class given is biochemical.
Series [5] addresses hERG channels (Homo sapiens, UniProt Q12809). The series is described as follows: hERG inhibition.
In series [6] the test system is CYP450 1A9. Put plainly: CYP450 inhibition. The class given is in vitro ADME. Particulars: % inhibition at 10 μM.
In series [7] the target is CYP450 2C9 (Homo sapiens, UniProt P11712). Put plainly: CYP450 inhibition. Particulars: % inhibition at 10 μM. The class given is in vitro ADME.
For series [8], the target named is CYP450 2C19 (Homo sapiens, UniProt P33261). Put plainly: CYP450 inhibition. The class given is in vitro ADME. The following applies: % inhibition at 10 μM.
Series [9] addresses CYP450 2D6 (Homo sapiens, UniProt P10635). Put plainly: CYP450 inhibition. The class given is in vitro ADME. Particulars: % inhibition at 10 μM.
Series [10] has as its target CYP450 3A4 (Homo sapiens, UniProt P08684). The series is described as follows: CYP450 inhibition. The class given is in vitro ADME. Particulars: % inhibition at 10 μM.
Series [11] in a line: In vitro metabolic stability in human liver microsomes. The class given is in vitro ADME. The following applies: after 4 h incubation.
Series [12] deals with panel of 45 diverse kinases. The series is described as follows: ExpresS Diversity Kinase Panel, whole panel. The class given is biochemical, human. The following applies: panel of 45 kinases, 10 μM, including JNK1.
[13] abbreviates: 2-methylaminothiazole versus 2-sulfanylimidazole (compound 5).

Sequence of p38α MAPK (Q16539 whole entry): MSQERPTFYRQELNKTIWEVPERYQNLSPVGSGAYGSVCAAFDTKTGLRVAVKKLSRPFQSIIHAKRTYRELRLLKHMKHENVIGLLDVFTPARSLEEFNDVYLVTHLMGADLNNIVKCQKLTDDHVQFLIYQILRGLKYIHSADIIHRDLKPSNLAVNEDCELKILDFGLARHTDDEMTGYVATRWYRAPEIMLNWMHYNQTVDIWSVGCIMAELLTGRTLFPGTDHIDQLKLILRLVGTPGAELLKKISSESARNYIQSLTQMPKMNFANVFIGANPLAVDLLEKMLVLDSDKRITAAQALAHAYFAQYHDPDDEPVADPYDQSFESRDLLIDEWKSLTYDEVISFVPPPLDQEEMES
Sequence of JNK3 (P53779 whole entry): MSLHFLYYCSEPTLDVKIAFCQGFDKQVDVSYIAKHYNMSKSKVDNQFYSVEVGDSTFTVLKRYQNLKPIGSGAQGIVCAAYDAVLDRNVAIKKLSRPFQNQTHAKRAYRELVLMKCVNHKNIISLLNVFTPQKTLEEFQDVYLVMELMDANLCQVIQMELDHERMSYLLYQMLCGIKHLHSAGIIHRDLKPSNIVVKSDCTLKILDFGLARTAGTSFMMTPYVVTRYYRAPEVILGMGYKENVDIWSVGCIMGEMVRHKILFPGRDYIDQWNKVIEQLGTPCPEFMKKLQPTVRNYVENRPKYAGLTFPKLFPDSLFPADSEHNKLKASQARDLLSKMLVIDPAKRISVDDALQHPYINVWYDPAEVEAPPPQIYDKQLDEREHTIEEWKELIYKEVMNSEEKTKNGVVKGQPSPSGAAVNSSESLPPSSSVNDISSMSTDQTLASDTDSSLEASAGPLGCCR
Sequence of hERG channels (Q12809 whole entry): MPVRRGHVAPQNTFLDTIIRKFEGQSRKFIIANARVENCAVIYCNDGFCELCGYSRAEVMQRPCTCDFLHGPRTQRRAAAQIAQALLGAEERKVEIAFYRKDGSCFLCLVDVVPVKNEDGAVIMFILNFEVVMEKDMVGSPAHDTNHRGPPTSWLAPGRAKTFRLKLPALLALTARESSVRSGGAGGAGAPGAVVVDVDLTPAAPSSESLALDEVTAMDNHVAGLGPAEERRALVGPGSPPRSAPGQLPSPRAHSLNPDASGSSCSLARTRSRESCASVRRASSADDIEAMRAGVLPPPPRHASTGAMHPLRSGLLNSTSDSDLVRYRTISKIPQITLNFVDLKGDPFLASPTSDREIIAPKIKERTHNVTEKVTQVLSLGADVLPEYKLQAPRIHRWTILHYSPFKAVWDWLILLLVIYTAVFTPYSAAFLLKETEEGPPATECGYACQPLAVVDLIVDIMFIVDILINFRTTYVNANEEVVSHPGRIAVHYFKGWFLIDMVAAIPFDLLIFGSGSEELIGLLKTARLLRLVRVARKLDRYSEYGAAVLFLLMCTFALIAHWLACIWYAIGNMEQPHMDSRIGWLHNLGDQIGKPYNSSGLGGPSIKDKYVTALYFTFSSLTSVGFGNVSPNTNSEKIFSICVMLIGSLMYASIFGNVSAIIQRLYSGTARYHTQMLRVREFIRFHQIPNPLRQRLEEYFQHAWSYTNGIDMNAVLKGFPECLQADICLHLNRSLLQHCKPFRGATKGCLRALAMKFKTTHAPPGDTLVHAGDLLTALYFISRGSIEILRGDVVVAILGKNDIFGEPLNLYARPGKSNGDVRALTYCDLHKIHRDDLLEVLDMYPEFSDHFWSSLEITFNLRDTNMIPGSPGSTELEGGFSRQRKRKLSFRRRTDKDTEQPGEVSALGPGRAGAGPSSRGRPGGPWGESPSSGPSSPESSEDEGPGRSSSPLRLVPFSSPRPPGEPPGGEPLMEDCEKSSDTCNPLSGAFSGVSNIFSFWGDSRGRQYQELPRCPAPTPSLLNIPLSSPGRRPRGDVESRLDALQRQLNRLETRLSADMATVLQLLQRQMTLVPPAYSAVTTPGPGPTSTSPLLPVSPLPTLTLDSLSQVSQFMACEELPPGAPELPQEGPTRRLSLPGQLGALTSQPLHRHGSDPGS
Sequence of JNK2 (P45984 whole entry): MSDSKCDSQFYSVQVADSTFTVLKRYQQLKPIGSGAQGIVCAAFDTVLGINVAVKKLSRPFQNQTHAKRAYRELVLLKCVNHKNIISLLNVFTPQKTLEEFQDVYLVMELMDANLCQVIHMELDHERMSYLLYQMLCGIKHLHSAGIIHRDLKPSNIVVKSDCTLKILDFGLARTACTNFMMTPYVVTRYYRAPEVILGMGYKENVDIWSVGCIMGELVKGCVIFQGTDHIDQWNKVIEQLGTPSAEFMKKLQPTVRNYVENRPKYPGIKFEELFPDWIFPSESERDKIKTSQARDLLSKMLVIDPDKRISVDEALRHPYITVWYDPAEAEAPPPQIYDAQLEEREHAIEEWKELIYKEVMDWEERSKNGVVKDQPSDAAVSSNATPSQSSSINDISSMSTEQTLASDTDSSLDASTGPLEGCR
Sequence of CYP450 2C9 (P11712 whole entry): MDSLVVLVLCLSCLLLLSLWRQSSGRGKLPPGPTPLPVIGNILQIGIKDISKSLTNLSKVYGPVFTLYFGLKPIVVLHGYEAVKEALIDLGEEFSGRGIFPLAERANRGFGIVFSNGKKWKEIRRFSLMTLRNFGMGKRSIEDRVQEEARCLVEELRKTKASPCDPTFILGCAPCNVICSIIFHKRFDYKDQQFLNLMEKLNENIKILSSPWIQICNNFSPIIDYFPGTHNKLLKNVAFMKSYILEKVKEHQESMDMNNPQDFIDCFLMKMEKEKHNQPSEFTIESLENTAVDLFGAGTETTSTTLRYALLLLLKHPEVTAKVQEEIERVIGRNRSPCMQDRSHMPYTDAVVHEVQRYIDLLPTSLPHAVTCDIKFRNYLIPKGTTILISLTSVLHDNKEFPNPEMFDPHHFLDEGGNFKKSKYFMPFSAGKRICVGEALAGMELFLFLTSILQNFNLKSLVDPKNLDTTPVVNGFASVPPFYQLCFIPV
Sequence of JNK1 (P45983 whole entry): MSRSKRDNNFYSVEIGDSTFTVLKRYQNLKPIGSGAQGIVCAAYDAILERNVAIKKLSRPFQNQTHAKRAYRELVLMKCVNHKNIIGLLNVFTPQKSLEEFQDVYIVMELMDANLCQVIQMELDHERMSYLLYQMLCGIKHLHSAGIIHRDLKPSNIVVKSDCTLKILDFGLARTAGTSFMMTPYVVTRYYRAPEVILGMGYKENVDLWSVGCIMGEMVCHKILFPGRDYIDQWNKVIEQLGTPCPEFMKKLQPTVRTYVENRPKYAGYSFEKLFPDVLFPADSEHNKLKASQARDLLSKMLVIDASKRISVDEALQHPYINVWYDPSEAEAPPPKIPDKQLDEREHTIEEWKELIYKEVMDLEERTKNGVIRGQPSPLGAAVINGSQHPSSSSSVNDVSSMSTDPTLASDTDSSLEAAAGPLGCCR
Sequence of CYP450 3A4 (P08684 whole entry): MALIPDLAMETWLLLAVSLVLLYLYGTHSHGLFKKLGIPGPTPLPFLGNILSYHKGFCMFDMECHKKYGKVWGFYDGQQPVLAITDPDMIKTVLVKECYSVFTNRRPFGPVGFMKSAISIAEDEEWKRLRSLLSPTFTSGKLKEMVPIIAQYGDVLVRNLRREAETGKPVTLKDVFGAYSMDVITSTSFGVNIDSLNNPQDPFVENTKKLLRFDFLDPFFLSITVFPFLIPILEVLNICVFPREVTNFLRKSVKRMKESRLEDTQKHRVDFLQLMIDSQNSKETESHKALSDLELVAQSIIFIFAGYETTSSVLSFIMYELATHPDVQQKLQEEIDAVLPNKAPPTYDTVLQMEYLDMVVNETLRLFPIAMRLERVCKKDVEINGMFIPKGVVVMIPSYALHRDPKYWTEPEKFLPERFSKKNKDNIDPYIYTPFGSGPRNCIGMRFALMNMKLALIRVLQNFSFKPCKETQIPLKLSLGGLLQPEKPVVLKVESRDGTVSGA
Sequence of CYP450 2C19 (P33261 whole entry): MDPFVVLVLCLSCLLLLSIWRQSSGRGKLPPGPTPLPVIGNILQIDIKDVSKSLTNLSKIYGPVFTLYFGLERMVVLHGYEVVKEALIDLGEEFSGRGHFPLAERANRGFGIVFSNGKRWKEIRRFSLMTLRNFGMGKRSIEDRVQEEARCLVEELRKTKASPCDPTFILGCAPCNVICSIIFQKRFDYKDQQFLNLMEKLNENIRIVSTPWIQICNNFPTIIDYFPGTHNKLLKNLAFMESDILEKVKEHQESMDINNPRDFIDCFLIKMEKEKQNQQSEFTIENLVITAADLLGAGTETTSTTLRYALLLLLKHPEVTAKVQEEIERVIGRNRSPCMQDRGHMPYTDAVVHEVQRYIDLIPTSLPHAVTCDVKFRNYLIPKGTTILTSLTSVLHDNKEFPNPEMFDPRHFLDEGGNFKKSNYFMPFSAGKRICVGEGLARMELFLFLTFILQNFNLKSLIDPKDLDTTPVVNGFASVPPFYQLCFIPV
Sequence of CYP450 2D6 (P10635 whole entry): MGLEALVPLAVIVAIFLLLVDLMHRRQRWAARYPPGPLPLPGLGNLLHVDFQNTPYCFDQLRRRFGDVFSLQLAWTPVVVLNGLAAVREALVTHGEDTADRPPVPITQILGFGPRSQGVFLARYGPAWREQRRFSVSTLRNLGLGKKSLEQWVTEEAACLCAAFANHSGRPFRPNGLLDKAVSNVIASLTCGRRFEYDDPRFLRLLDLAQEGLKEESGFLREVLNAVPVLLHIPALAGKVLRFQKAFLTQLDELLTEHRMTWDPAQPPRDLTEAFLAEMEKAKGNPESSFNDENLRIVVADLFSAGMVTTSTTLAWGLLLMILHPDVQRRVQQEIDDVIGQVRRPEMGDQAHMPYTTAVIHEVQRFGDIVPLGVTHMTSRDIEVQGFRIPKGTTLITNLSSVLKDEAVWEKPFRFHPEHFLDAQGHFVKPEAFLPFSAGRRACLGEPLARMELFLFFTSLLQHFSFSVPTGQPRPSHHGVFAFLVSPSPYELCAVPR

For `CSc1nc(C)c(-c2ccnc(Nc3ccc(N4CCOCC4)cc3)c2)[nH]1` [Compound 44, 4-(4-Methyl-2-(methylthio)-1H-imidazol-5-yl)-N-(4-morpholinophenyl)pyridin-2-amine], the IC50 in series [1] was 0.363 ± 0.034 µM; in series [2], more than 10 µM; in series [3], 0.119 µM; in series [4] it was 0.468 µM; in series [5], more than 10 µM. Besides, the “fold increase in the inhibitory potency on JNK3 over analogue 38” value in series [1] is on record as 2 fold. In series [2], the inhibition at 10 µM is 48%. Besides, the “hERG inhibition [% inhibition at 10 μM]” value in series [5] (10 μM) worked out at 38.8%. The “CYP450 inhibition 1A9” value in series [6] was 51.5%. Moreover, the “CYP450 inhibition 2C9” value in series [7] is listed as 53.9%. Besides, in series [8], the “CYP450 inhibition 2C19” value is on record as 35.6%. Also, in [9], the “CYP450 inhibition 2D6” value came to 19.0%. Besides, the “CYP450 inhibition 3A4” value in [10] came to 75.1%. Also, the “unmodified compound still present” value in series [11] is given as “approximately 80%”. Further, the “number of kinases inhibited more than 50%” value in [12] was found to be 10.

As for `CSc1nc(C)c(-c2ccnc(N[C@H]3CC[C@H](NC(=O)C4CCCCC4)CC3)c2)[nH]1` [Compound 48k, N-(trans-4-((4-(4-Methyl-2-(methylthio)-1H-imidazol-5-yl)pyridin-2-yl)amino)cyclohexyl)cyclohexanecarboxamide], in series [1], the IC50 is 2.23 µM. Further, in series [2], the concentration for half-maximal inhibition (IC50) was more than 10 µM and the inhibition at 10 µM is 10%.

For the compound `CSc1nc(C)c(-c2ccnc(Nc3ccc(N)cc3)c2)[nH]1` [Compound 48m, N1-(4-(4-Methyl-2-(methylthio)-1H-imidazol-5-yl)pyridin-2-yl)benzene-1,4-diamine], in [1], the IC50 was determined as 0.353 ± 0.058 µM. In addition, in series [2], the IC50 is more than 10 µM and the inhibition at 10 µM was 38%.

As for `CSc1nc(C)c(-c2ccnc(Nc3ccc(NC(C)=O)cc3)c2)[nH]1` [Compound 48n, N-(4-((4-(4-Methyl-2-(methylthio)-1H-imidazol-5-yl)pyridin-2-yl)amino)phenyl)acetamide], the IC50 in series [1] is 0.415 ± 0.04 µM; in [2], more than 10 µM. Besides, the inhibition at 10 µM in series [2] was 32%.

With `CSc1nc(C)c(-c2ccnc(Nc3ccc(NC(=O)c4ccccc4)cc3)c2)[nH]1` [Compound 48o, N-(4-((4-(4-Methyl-2-(methylthio)-1H-imidazol-5-yl)pyridin-2-yl)amino)phenyl)benzamide], the IC50 in [1] is 0.432 ± 0.037 µM; in series [2], more than 10 µM. Besides, the inhibition at 10 µM in series [2] amounted to 33%.

For `CSc1nc(C)c(-c2ccnc(Nc3ccc(NC(=O)C4CCCCC4)cc3)c2)[nH]1` [Compound 48p, N-(4-((4-(4-Methyl-2-(methylthio)-1H-imidazol-5-yl)pyridin-2-yl)amino)phenyl)cyclohexanecarboxamide], the IC50 in series [1] was 1.54 µM; in [2], more than 10 µM. For the same compound, the inhibition at 10 µM in series [2] worked out at 27%.

In the case of `CSc1nc(C)c(-c2ccnc(Nc3ccc(NC(=O)C(C)(C)C)cc3)c2)[nH]1` [Compound 48q, N-(4-((4-(4-Methyl-2-(methylthio)-1H-imidazol-5-yl)pyridin-2-yl)amino)phenyl)pivalamide], the IC50 in series [1] turned out to be 2.37 µM. In addition, in [2], the IC50 was more than 10 µM and the inhibition at 10 µM was 15%.

In series [1], `CSc1nc(-c2ccnc(Nc3ccc(N4CCOCC4)cc3)c2)c(C)n1C` [Compound 50, 4-(1,5-Dimethyl-2-(methylthio)-1H-imidazol-4-yl)-N-(4-morpholinophenyl)pyridin-2-amine] registered an IC50 of 1.28 µM. Moreover, in series [2], the IC50 was more than 10 µM and the inhibition at 10 µM stood at 37%.

In series [1], `CSc1nc(C)c(-c2ccnc(Nc3ccc(N4CCOCC4)cc3)c2)n1C` [Compound 57, 4-(1,4-Dimethyl-2-(methylthio)-1H-imidazol-5-yl)-N-(4-morpholinophenyl)pyridin-2-amine] came in with an IC50 of 2.51 µM. In series [2], the IC50 is more than 10 µM and the inhibition at 10 µM is 10%.

With `CCn1c(SC)nc(C)c1-c1ccnc(Nc2ccc(N3CCOCC3)cc2)c1` [Compound 58, 4-(1-Ethyl-4-methyl-2-(methylthio)-1H-imidazol-5-yl)-N-(4-morpholinophenyl)pyridin-2-amine], the IC50 in [1] was determined as 2.09 µM. Also, in series [2], the IC50 was more than 10 µM and the inhibition at 10 µM is 21%.

Consider `CSc1nc(C)c(-c2ccnc(Nc3ccc(N4CCOCC4)cc3)c2)n1C1CC1` [Compound 59, 4-(1-Cyclopropyl-4-methyl-2-(methylthio)-1H-imidazol-5-yl)-N-(4-morpholinophenyl)pyridin-2-amine], for which, in series [1], the IC50 came out at 6.51 µM and the “fold less active on JNK3 compared to N-methyl analogue 57” value was approximately 3 fold. In addition, in series [2], the IC50 was more than 10 µM and the inhibition at 10 µM came out at 40%.

With `Fc1ccc(-n2cncc2-c2ccnc(Nc3ccc(N4CCOCC4)cc3)c2)cc1` [Compound 66, 4-(1-(4-Fluorophenyl)-1H-imidazol-5-yl)-N-(4-morpholinophenyl)pyridin-2-amine], the 50% inhibitory concentration (IC50) amounted to 0.276 ± 0.01 µM in series [1] and 0.323 ± 0.014 µM in series [2].

For `Cn1cncc1-c1ccnc(Nc2ccc(N3CCOCC3)cc2)c1` [Compound 67, 4-(1-Methyl-1H-imidazol-5-yl)-N-(4-morpholinophenyl)pyridin-2-amine], it took 0.714 ± 0.021 µM to reach half-maximal inhibition in [1] (IC50). Moreover, in series [2], the IC50 was more than 10 µM and the inhibition at 10 µM is 32%.

In the case of `Cn1ccnc1-c1ccnc(Nc2ccc(N3CCOCC3)cc2)c1` [Compound 71, 4-(1-Methyl-1H-imidazol-2-yl)-N-(4-morpholinophenyl)pyridin-2-amine], the IC50 in series [1] and in [2] was more than 10 µM each time. Moreover, the inhibition at 10 µM in series [1] (read-out: Percent inhibition of JNK3 at indicated concentration) is 42%; in [2], 15%.

On to `CNc1nc(-c2ccc(F)cc2)c(-c2ccnc(Nc3ccc(N4CCOCC4)cc3)c2)s1` [Compound 75, 4-(4-Fluorophenyl)-N-methyl-5-(2-((4-morpholinophenyl)amino)pyridin-4-yl)thiazol-2-amine], for which the values for the IC50 in series [1] and in series [2] were 0.015 ± 0.003 µM and 0.002 µM, respectively. Also, the “fold increase in inhibitory activity for JNK3” value in series [1] (setting [13]) was found to be 2.5 fold. Moreover, the “fold increase in inhibitory activity for p38α MAPK” value in [2] (setting [13]) is 8 fold.

Consider `CNc1nc(-c2ccnc(Nc3ccc(N4CCOCC4)cc3)c2)c(C)s1` [Compound 78, N,5-Dimethyl-4-(2-((4-morpholinophenyl)amino)pyridin-4-yl)thiazol-2-amine], for which it took 2.5 µM to reach half-maximal inhibition in [1] (IC50). In addition, in [2], the IC50 is more than 10 µM and the inhibition at 10 µM amounted to 9%.
